What was measured:
SW1990 = test: Cytotoxicity against human SW1990 cells after 48 hrs by MTT assay; format: functional, cell-based; details: SW1990, 48 h
[1] = Cytotoxicity against human MGC803 cells after 48 hrs by MTT assay; format: functional, cell-based; details: MGC-803, 48 h
[2] = Cytotoxicity against human P15 cells after 48 hrs by MTT assay; format: functional, cell-based; details: P15, 48 h
[3] = Cytotoxicity against human LO2 cells after 48 hrs by MTT assay; format: cell-based; details: L02, 48 h

| Compound | IC50 (SW1990) [µM] | IC50 [1] [µM] | IC50 [2] [µM] | IC50 [3] [µM] |
| --- | --- | --- | --- | --- |
| CO[C@H]1[C@H](O)[C@H](O[C@H]2CC[C@@]3(C)[C@H](CC[C@@H]4[C@@H]3CC[C@]3(C)[C@@H](C5=CC(=O)OC5)CC[C@]43O)C2)O[C@@H](C)[C@@H]1O[C@H]1O[C@@H](CO)[C@H](O)[C@@H](O)[C@@H]1O | 0.62 | 0.42 | 0.4 | > 10 |
| CO[C@H]1[C@H](O)[C@H](O[C@H]2CC[C@@]3(O)[C@H](CC[C@@H]4[C@@H]3CC[C@]3(C)[C@@H](C5=CC(=O)OC5)CC[C@]43O)C2)O[C@@H](C)[C@@H]1O | 0.49 | 2.14 | 1.52 | > 10 |
| CO[C@H]1[C@H](O)[C@H](O[C@H]2CC[C@@]3(O)[C@H](CC[C@@H]4[C@@H]3CC[C@]3(C)[C@@H](C5=CC(=O)OC5)CC[C@]43O)C2)O[C@@H](C)[C@@H]1O[C@H]1O[C@@H](CO)[C@H](O)[C@@H](O)[C@@H]1O | > 10 | > 10 | > 10 | > 10 |
| CO[C@@H]1[C@H](O)[C@@H](O[C@@H]2CC[C@]3(CO)[C@@H](CC[C@H]4[C@H]3CC[C@@]3(C)[C@H](C5=CC(=O)OC5)CC[C@@]43O)C2)O[C@H](C)[C@H]1O[C@@H]1O[C@H](CO)[C@@H](O)[C@H](O)[C@H]1O | 2.14 | 5.75 | 4.91 | > 10 |
| CO[C@@H]1[C@@H](O)[C@@H](O[C@@H]2CC[C@]3(CO)[C@@H](CC[C@H]4[C@H]3CC[C@@]3(C)[C@H](C5=CC(=O)OC5)CC[C@@]43O)C2)O[C@H](C)[C@H]1O[C@@H]1O[C@H](CO)[C@@H](O)[C@H](O)[C@H]1O | 0.13 | 0.32 | 0.12 | > 10 |
| CO[C@H]1[C@H](O)[C@H](O[C@H]2CC[C@@]3(C)[C@@H](CC[C@@H]4[C@@H]3CC[C@]3(C)[C@@H](C5=CC(=O)OC5)CC[C@]43O)C2)O[C@@H](C)[C@@H]1O[C@H]1O[C@@H](CO[C@@H]2O[C@H](CO)[C@@H](O)[C@H](O)[C@H]2O)[C@H](O)[C@@H](O)[C@@H]1O | > 10 | 8.32 | 10 | > 10 |
| CO[C@H]1[C@H](O)[C@H](O[C@H]2CC[C@H]3[C@H](CC[C@@H]4[C@@H]3CC[C@]3(C)[C@@H](C5=CC(=O)OC5)CC[C@]43O)C2)O[C@@H](C)[C@@H]1O[C@H]1O[C@@H](CO)[C@H](O)[C@@H](O)[C@@H]1O | 8.1 | > 10 | 3.35 | > 10 |
| CO[C@H]1[C@H](O)[C@H](O[C@H]2CC[C@@]3(C=O)[C@H](CC[C@@H]4[C@@H]3CC[C@]3(C)[C@@H](C5=CC(=O)OC5)CC[C@]43O)C2)O[C@@H](C)[C@@H]1O [PERUVOSIDE] | 0.02 | 0.02 | 0.03 | > 10 |
| CO[C@H]1[C@@H](O)[C@H](O[C@H]2CC[C@@]3(C)[C@@H](CC[C@@H]4[C@@H]3CC[C@]3(C)[C@@H](C5=CC(=O)OC5)CC[C@]43O)C2)O[C@@H](C)[C@@H]1O[C@H]1O[C@@H](CO[C@@H]2O[C@H](CO)[C@@H](O)[C@H](O)[C@H]2O)[C@H](O)[C@@H](O)[C@@H]1O | > 10 | 6.56 | 10 | > 10 |
| CO[C@H]1[C@H](O)[C@H](O[C@@H]2CC[C@]3(C(=O)O)[C@@H](CC[C@H]4[C@H]3CC[C@@]3(C)[C@H](C5=CC(=O)OC5)CC[C@@]43O)C2)O[C@@H](C)[C@@H]1O[C@H]1O[C@@H](CO[C@@H]2O[C@H](CO)[C@@H](O)[C@H](O)[C@H]2O)[C@H](O)[C@@H](O)[C@@H]1O | > 10 | > 10 | > 10 | > 10 |
